Results as given in patent US20100249439A1, “PROCESS FOR CONTROLLED CRYSTAL SIZE IN 1,2-SUBSTITUTED 3,4-DIOXO-1-CYCLOBUTENE COMPOUNDS” (priority 2007, published 2010).

Assay: Specific cake resistance measurement (pressure filtration of crystal slurry, Tiller equation)
Assay type: physicochemical
Procedure: There follows examples of the present invention controlled crystallization process yielding crystalline material having improved filter cake specific resistance. For each of these examples, the filter cake specific resistance was measured in accordance with the following procedure. Specific Cake Resistance Measurement Procedure V(i): Into a pressure filter, the crystal slurry was filled. The filtration was then carried out under a constant pressure while the filtrate volume along with the filtration time was logged. During the cake formation, the relationship between the filtrate volume and the filtration time can be described by the Tiller equation: [formula] where: μ is the viscosity of filtrate, lb/ft-s or Pa·s; α is a specific cake resistance, ft, lb or […]; c is the mass solid deposited in the filter per unit volume of filtrate, lb/ft^3 or kg/m^3: A is the filtration area, ft^2 or m^2; gc is Newton's law proportionality factor; p is the pressure, lbf/ft2 or atm; Rm is the filter-medium resistance, ft^−1 or m^−1. The specific cake resistance a can be calculated from the slope of the linear plot of t/V vs. V.

- filter cake specific resistance (Form 4 crystals precipitated from the reaction mixture of Scheme IIa steps a and b, conventional crystallization without temperature cycling): about 8.0×10^11 m/kg
- filter cake specific resistance (Form 4 monohydrate crystals from n-propanol/water after seeding and temperature cycling (Va: 4 cycles 53-20° C.; Vb: 8 cycles; Vc: 19 cycles 43-20° C.), listed as Example Va): 6.4×10^11 m/Kg
- filter cake specific resistance (Form 4 monohydrate crystals from n-propanol/water after seeding and temperature cycling (Va: 4 cycles 53-20° C.; Vb: 8 cycles; Vc: 19 cycles 43-20° C.), listed as Example Vb): 2.5×10^11 m/Kg
- filter cake specific resistance (Form 4 monohydrate crystals from n-propanol/water after seeding and temperature cycling (Va: 4 cycles 53-20° C.; Vb: 8 cycles; Vc: 19 cycles 43-20° C.), listed as Example Vc): 1.99×10^11 m/Kg
SMILES: CC[C@@H](Nc1c(Nc2cccc(C(=O)N(C)C)c2O)c(=O)c1=O)c1ccc(C)o1 [compound of Formula I, 2-Hydroxy-N,N-dimethyl-3-[[2-[[1(R)-(5-methyl-2-furanyl)propyl]amino]-3,4-dioxo-1-cyclobuten-1-yl]amino]benzamide]
